{
  "source": "patent US8653096B2",
  "about": "“Chemokine receptor antagonists and methods of use thereof” (Millennium Pharmaceuticals, Inc., priority 2001, dated 2014)",
  "target": "T1, RANTES/MIP-1α chemokine receptor (CCR1) in THP-1 cell membranes (Homo sapiens, UniProt P32246)",
  "T1 construct": "Membranes were prepared from THP-1 cells (ATCC #TIB202); host or cells: THP-1 cells (membrane preparation)",
  "T1 sequence (P32246 1-355)": "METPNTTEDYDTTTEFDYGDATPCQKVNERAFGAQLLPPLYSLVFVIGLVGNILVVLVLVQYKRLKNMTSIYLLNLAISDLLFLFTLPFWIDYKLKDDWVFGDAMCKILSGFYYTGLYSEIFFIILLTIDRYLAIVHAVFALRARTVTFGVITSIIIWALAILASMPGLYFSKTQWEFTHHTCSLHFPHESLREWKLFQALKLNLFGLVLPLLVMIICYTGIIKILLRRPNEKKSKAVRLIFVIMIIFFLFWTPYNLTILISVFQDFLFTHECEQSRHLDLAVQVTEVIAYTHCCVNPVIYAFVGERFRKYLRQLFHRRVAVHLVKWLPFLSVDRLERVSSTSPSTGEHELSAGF",
  "assay": "Receptor binding assay: 125I-RANTES or 125I-MIP-1α binding to THP-1 cell membranes",
  "key": {"[1]": {"settings": "inhibitor concentration required for 50% inhibition of specific binding, 125I-RANTES or 125I-MIP-1α as ligand, THP-1 cell membranes, read-out: IC50"}},
  "note": "Read-outs that look alike come from different tables or passages of the source.",
  "data": [
    {"smiles": "CC(C)(Oc1ccc2c(c1)C(=CCCN1CCC(O)(c3ccc(Cl)cc3)CC1)c1cccnc1CO2)C(N)=O", "note": "[Example 211, 1-[3-(7-(1-Carbamoyl-1-methyl)ethyloxy-5,11-dihydro [1]benzoxepino[2,3-b]pyridin-5-ylidene)propyl]-4-(4-chlorophenyl)piperidin-4-ol]", "values": [
      {"measurement": "IC50", "setting": "[1]", "result": "< 1", "unit": "µM"}
    ]},
    {"smiles": "CNC(=O)C(C)(C)Oc1ccc2c(c1)C(=CCCN1CCC(O)(c3ccc(Cl)cc3)CC1)c1cccnc1CO2", "note": "[Example 212, 4-(4-Chlorophenyl)-1-[3-(5,11-dihydro-7-(1-methylaminocarbonyl-1-methyl)ethyloxy[1]benzoxepino[2,3-b]pyridin-5-ylidene)propyl]piperidin-4-ol]", "values": [
      {"measurement": "IC50", "setting": "[1]", "result": "< 1", "unit": "µM"}
    ]},
    {"smiles": "CN(C)C(=O)C=Cc1ccc2c(c1)C(=CCCN1CCC(O)(c3ccc(Cl)cc3)CC1)c1cccnc1CO2", "note": "[Example 215, 4-(4-Chlorophenyl)-1-[3-(7-(2-dimethylaminocarboxy)ethenyl-5,11-dihydro[1]benzoxepino[2,3-b]pyridin-5-ylidene)propyl]piperidin-4-ol]", "values": [
      {"measurement": "IC50", "setting": "[1]", "result": "< 1", "unit": "µM"}
    ]},
    {"smiles": "CC(C)(O)c1ccc2c(c1)C(=CCCN1CCC(O)(c3ccc(Cl)cc3)CC1)c1cccnc1CO2", "note": "[Example 242, 4-(4-Chlorophenyl)-1-[3-(5,11-dihydro-7-(1-hydroxy-1-methyl)ethyl[1]benzoxepino[2,3-b]pyridin-5-ylidene)propyl]piperidin-4-ol]", "values": [
      {"measurement": "IC50", "setting": "[1]", "result": "< 1", "unit": "µM"}
    ]},
    {"smiles": "COc1ccc2c(c1)C(=CCCN1CCOC(c3ccc(Cl)cc3)OCC1)c1cccnc1CO2", "note": "[Example 249, 5-(4-Chlorophenyl)-1-[3-(5,11-dihydro-7-methoxy[1]benzoxepino[2,3-b]pyridin-5-ylidene)propyl]-4,6-dioxazacane]", "values": [
      {"measurement": "IC50", "setting": "[1]", "result": "< 1", "unit": "µM"}
    ]},
    {"smiles": "CC(C)(Oc1ccc2c(c1)C(=CCC[N+]1(C)CCC(O)(c3ccc(Cl)cc3)CC1)c1cccnc1CO2)C(N)=O", "note": "(stereo not drawn) [Example 262, 1-[3-(7-(1-Carbamoyl-1-methyl)ethyloxy-5,11-dihydro[1]benzoxepino[2,3-b]pyridin-5-ylidene)propyl]-4-(4-chlorophenyl)-4-hydroxy-1-methylpiperidinium iodide]", "values": [
      {"measurement": "IC50", "setting": "[1]", "result": "< 1", "unit": "µM"}
    ]},
    {"smiles": "COC(=O)c1ccc2c(c1)C(=CCCN1CCC(O)(c3ccc(Cl)cc3)CC1)c1cccnc1CO2", "note": "[Example 273]", "values": [
      {"measurement": "IC50", "setting": "[1]", "result": "< 1", "unit": "µM"}
    ]},
    {"smiles": "OC1(c2ccc(Cl)cc2)CCN(CCC=C2c3cc(CN4CCOCC4)ccc3OCc3ncccc32)CC1", "note": "[Example 278, 4-(4-Chlorophenyl)-1-[3-(5,11-dihydro-7-(4-morpholino)methyl[1]benzoxepino[2,3-b]pyridin-5-ylidene)propyl]piperidin-4-ol]", "values": [
      {"measurement": "IC50", "setting": "[1]", "result": "< 1", "unit": "µM"}
    ]},
    {"smiles": "OCCCc1ccc2c(c1)C(=CCCN1CCC(O)(c3ccc(Cl)cc3)CC1)c1cccnc1CO2", "note": "[Example 289, 4-(4-Chlorophenyl)-1-[3-(7-(1-(3-hydroxy)propyl)-5,11-dihydro[1]benzoxepino[2,3-b]pyridin-5-ylidene)propyl]piperidin-4-ol]", "values": [
      {"measurement": "IC50", "setting": "[1]", "result": "< 1", "unit": "µM"}
    ]},
    {"smiles": "CCOC(=O)[C@H]1CCCN(NC(=O)c2ccc3c(c2)C(=CCCN2CCC(O)(c4ccc(Cl)cc4)CC2)c2cccnc2CO3)C1", "note": "[Example 422, 4-(4-Chlorophenyl)-1-[3-(5,11-dihydro-7-(S-3-ethoxycarbonyl-piperidine-1-yl)-carbamoyl-[1]benzoxepino[2,3-b]pyridin-5-ylidene)propyl]piperidine-4-ol]", "values": [
      {"measurement": "IC50", "setting": "[1]", "result": "< 1", "unit": "µM"}
    ]},
    {"smiles": "O=C(OCCN1CCOCC1)c1ccc2c(c1)C(=CCCN1CCC(O)(c3ccc(Cl)cc3)CC1)c1cccnc1CO2", "note": "[Example 430, 4-(4-Chlorophenyl)-1-[3-(5,11-dihydro-7-(2-morpholinoethyl-1-yl)-oxycarbonyl-[1]benzoxepino[2,3-b]pyridin-5-ylidene)propyl]piperidine-4-ol]", "values": [
      {"measurement": "IC50", "setting": "[1]", "result": "< 1", "unit": "µM"}
    ]},
    {"smiles": "CCN(CC)CCOC(=O)c1ccc2c(c1)C(=CCCN1CCC(O)(c3ccc(Cl)cc3)CC1)c1cccnc1CO2", "note": "[Example 431, 4-(4-Chlorophenyl)-1-[3-(5,11-dihydro-7-(2,2-diethylaminoethyl-1-yl)-oxycarbonyl-[1]benzoxepino[2,3-b]pyridin-5-ylidene)propyl]piperidine-4-ol]", "values": [
      {"measurement": "IC50", "setting": "[1]", "result": "< 1", "unit": "µM"}
    ]},
    {"smiles": "CC(C)(C)C(=O)OCOC(=O)c1ccc2c(c1)C(=CCCN1CCC(O)(c3ccc(Cl)cc3)CC1)c1cccnc1CO2", "note": "[Example 432, 4-(4-Chlorophenyl)-1-[3-(5,11-dihydro-7-(1-2,2-dimethylpropionyl-oxymethyl)-oxycarbonyl-[1]benzoxepino[2,3-b]pyridin-5-ylidene)propyl]piperidine-4-ol]", "values": [
      {"measurement": "IC50", "setting": "[1]", "result": "< 1", "unit": "µM"}
    ]},
    {"smiles": "CC(C)(O)c1ccc2c(c1)C(=CCCN1CCC(C#N)(c3ccc(Cl)cc3)CC1)c1cccnc1CO2", "note": "[Example 456, 4-(4-Chloro-phenyl)-1-{3-[7-(1-hydroxy-1-methyl-ethyl)-11H-10-oxa-1-aza-dibenzo-[a,d]cyclohepten-5-ylidene]-propyl}-piperidine-4-carbonitrile]", "values": [
      {"measurement": "IC50", "setting": "[1]", "result": "< 1", "unit": "µM"}
    ]},
    {"smiles": "CC(=O)C1(c2ccc(Cl)cc2)CCN(CCC=C2c3cc(C(C)(C)O)ccc3OCc3ncccc32)CC1", "note": "[Example 457, 1-(4-(4-Chloro-phenyl)-1-{3-[7-(1-hydroxy-1-methyl-ethyl)-11H-10-oxa-1-aza-dibenzo[a,d]cyclohepten-5-ylidene]-propyl}-piperidin-4-yl)-ethanone]", "values": [
      {"measurement": "IC50", "setting": "[1]", "result": "< 1", "unit": "µM"}
    ]},
    {"smiles": "COC(=O)C1(c2ccc(Cl)cc2)CCN(CCC=C2c3cc(C(C)(C)O)ccc3OCc3ncccc32)CC1", "note": "[Example 458, 4-(4-Chloro-phenyl)-1-{3-[7-(1-hydroxy-1-methyl-ethyl)-11H-10-oxa-1-aza-dibenzo[a,d]cyclohepten-5-ylidene]-propyl}-piperidine-4-carboxylic acid methyl ester]", "values": [
      {"measurement": "IC50", "setting": "[1]", "result": "< 10", "unit": "µM"}
    ]},
    {"smiles": "CC(C)(O)c1ccc2c(c1)C(=CCCN1CCC(C(=O)O)(c3ccc(Cl)cc3)CC1)c1cccnc1CO2", "note": "[Example 459, 4-(4-Chloro-phenyl)-1-{3-[7-(1-hydroxy-1-methyl-ethyl)-11H-10-oxa-1-aza-dibenzo[a,d]cyclohepten-5-ylidene]-propyl}-piperidine-4-carboxylic acid]", "values": [
      {"measurement": "IC50", "setting": "[1]", "result": "< 10", "unit": "µM"}
    ]},
    {"smiles": "CC(C)(O)c1ccc2c(c1)C(=CCCN1CCC(C(N)=O)(c3ccc(Cl)cc3)CC1)c1cccnc1CO2", "note": "[Example 460, 4-(4-Chloro-phenyl)-1-{3-[7-(1-hydroxy-1-methyl-ethyl)-11H-10-oxa-1-aza-dibenzo[a,d]cyclohepten-5-ylidene]-propyl}-piperidine-4-carboxylic acid amide]", "values": [
      {"measurement": "IC50", "setting": "[1]", "result": "< 1", "unit": "µM"}
    ]},
    {"smiles": "CC(C)(O)c1ccc2c(c1)C(=CCCN1CCC(CO)(c3ccc(Cl)cc3)CC1)c1cccnc1CO2", "note": "[Example 461, 2-(5-{3-[4-(4-Chloro-phenyl)-4-hydroxymethyl-piperidin-1-yl]-propylidene}-5,11-dihydro-10-oxa-1-aza-dibenzo[a,d]cyclohepten-7-yl)-propan-2-ol]", "values": [
      {"measurement": "IC50", "setting": "[1]", "result": "< 10", "unit": "µM"}
    ]},
    {"smiles": "CC(O)C1(c2ccc(Cl)cc2)CCN(CCC=C2c3cc(C(C)(C)O)ccc3OCc3ncccc32)CC1", "note": "(stereo not drawn) [Example 462, 2-(5-{3-[4-(4-chloro-phenyl)-4-(1-hydroxy-ethyl)-piperidin-1-yl]-propylidene}-5,11-dihydro-10-oxa-1-aza-dibenzo [a,d]cyclohepten-7-yl)-propan-2-ol]", "values": [
      {"measurement": "IC50", "setting": "[1]", "result": "< 10", "unit": "µM"}
    ]},
    {"smiles": "CC(C)(O)c1ccc2c(c1)C(=CCCN1CCC(c3ccc(Cl)cc3)(C(C)(C)O)CC1)c1cccnc1CO2", "note": "[Example 463, 2-(5-{3-[4-(4-Chloro-phenyl)-4-(1-hydroxy-1-methyl-ethyl)-piperidin-1-yl]-propylidene}-5,11-dihydro-10-oxa-1-aza-dibenzo[a,d]cyclohepten-7-yl)-propan-2-ol]", "values": [
      {"measurement": "IC50", "setting": "[1]", "result": "< 10", "unit": "µM"}
    ]},
    {"smiles": "CC(C)(O)c1ccc2c(c1)C(=CCCN1CCC(C#N)(Nc3ccc(Cl)cc3)CC1)c1cccnc1CO2", "note": "[Example 464, 4-(4-Chloro-phenylamino)-1-{3-[7-(1-hydroxy-1-methyl-ethyl)-11H-10-oxa-1-aza-dibenzo[a,d]cyclohepten-5-ylidene]-propyl}-piperidine-4-carbonitrile]", "values": [
      {"measurement": "IC50", "result": "< 1", "unit": "µM"}
    ]},
    {"smiles": "COC(=O)C1(Nc2ccc(Cl)cc2)CCN(CCC=C2c3cc(C(C)(C)O)ccc3OCc3ncccc32)CC1", "note": "[Example 465, 4-(4-Chloro-phenylamino)-1-{3-[7-(1-hydroxy-1-methyl-ethyl)-11H-10-oxa-1-aza-dibenzo[a,d]cyclohepten-5-ylidene]-propyl}-piperidine-4-carboxylic acid methyl ester]", "values": [
      {"measurement": "IC50", "result": "< 1", "unit": "µM"}
    ]},
    {"smiles": "CC(C)(O)c1ccc2c(c1)C(=CCCN1CCC(Nc3ccc(Cl)cc3)(C(N)=O)CC1)c1cccnc1CO2", "note": "[Example 466, 4-(4-Chloro-phenylamino)-1-{3-[7-(1-hydroxy-1-methyl-ethyl)-11H-10-oxa-1-aza-dibenzo[a,d]cyclohepten-5-ylidene]-propyl}-piperidine-4-carboxylic acid amide]", "values": [
      {"measurement": "IC50", "result": "< 50", "unit": "µM"}
    ]},
    {"smiles": "CC(C)(O)c1ccc2c(c1)C(=CCCN1CCC(F)(c3ccc(Cl)cc3)CC1)c1cccnc1CO2", "note": "[Example 467, 2-(5-{3-[4-(4-Chloro-phenyl)-4-fluoro-piperidin-1-yl]-propylidene}-5,11-dihydro-10-oxa-1-aza-dibenzo[a,d]cyclohepten-7-yl)-propan-2-ol]", "values": [
      {"measurement": "IC50", "setting": "[1]", "result": "< 1", "unit": "µM"}
    ]},
    {"smiles": "CC(C)(O)c1ccc2c(c1)C(=CCCN1CCC(F)(c3ccc(Cl)cc3)C(O)C1)c1cccnc1CO2", "note": "(stereo not drawn) [Example 468, 4-(4-Chloro-phenyl)-4-fluoro-1-{3-[7-(1-hydroxy-1-methyl-ethyl)-11H-10-oxa-1-aza-dibenzo[a,d]cyclohepten-5-ylidene]-propyl}-piperidin-3-ol]", "values": [
      {"measurement": "IC50", "setting": "[1]", "result": "< 1", "unit": "µM"}
    ]},
    {"smiles": "CC1CN(CCC=C2c3cc(C(C)(C)O)ccc3OCc3ncccc32)CCC1(F)c1ccc(Cl)cc1", "note": "(stereo not drawn) [Example 469, 2-(5-{3-[4-(4-Chloro-phenyl)-4-fluoro-3-methyl-piperidin-1-yl]-propylidene}-5,11-dihydro-10-oxa-1-aza-dibenzo[a,d]cyclohepten-7-yl)-propan-2-ol]", "values": [
      {"measurement": "IC50", "setting": "[1]", "result": "< 1", "unit": "µM"}
    ]}
  ]
}
